In patent US20210284647A1, “N-(3-(IMIDAZO[1,2-B]PYRIDAZIN-3-YLETHYNYL)-4-METHYLPHENYL)-5-PHENYL-4,5-DIHYDRO-1H-PYRAZOLE-1-CARBOXAMIDE DERIVATIVE, AND PHARMACEUTICAL COMPOSITION CONTAINING SAME AS ACTIVE INGREDIENT FOR TREATING KINASE-RELATED DISEASES” (VORONOIBIO INC., priority 2018, published 2021):
Structures can show the parent of a compound that is named as a salt.

Columns and labels:
[1] = target: T1, human GST-RIPK1 (Homo sapiens, UniProt Q13546); test: RIPK1 inhibitory activity (ADP-Glo kinase assay); type: biochemical; details: human GST-RIPK1 10 ng, ATP 50 uM, 25° C. for 4 hours, read-out: Enzyme IC50
T1 construct: GST; purchased signalchem
T1 sequence (Q13546 1-375 limits assumed): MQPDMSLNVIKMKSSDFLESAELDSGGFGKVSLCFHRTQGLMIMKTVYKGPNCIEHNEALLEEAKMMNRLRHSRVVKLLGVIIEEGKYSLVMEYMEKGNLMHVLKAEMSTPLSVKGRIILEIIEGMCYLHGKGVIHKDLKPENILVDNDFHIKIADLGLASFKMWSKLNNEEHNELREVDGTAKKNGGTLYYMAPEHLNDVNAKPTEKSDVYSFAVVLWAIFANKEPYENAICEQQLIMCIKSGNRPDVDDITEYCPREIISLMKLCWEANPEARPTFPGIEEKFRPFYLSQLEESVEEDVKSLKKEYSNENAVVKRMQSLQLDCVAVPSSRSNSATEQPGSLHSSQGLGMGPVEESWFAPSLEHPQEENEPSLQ
Description: The following experiment was performed to evaluate the inhibitory activity of the example compounds according to the present invention against RIPK1 (receptor-interacting serine/threonine protein kinase 1).
The example compound was reacted with the purified human GST-RIPK1 (1375, signalchem) enzyme to evaluate the enzyme inhibitory activity in the following manner. The composition of the reaction buffer used herein was as follows: 40 mM Tris-Hcl pH 7.4, 20 mM MgCl2, 0.5 mg/ml, BSA and 0.5 uM DTT. All the test materials were reacted in the reaction buffer. After reacting human GST-RIPK1 (1375, 10 ng), purified ATP (50 uM) and a specific substrate solution at 25° C. for 4 hours, the enzyme activity was confirmed using an in vitro ADP-Glo™ kinase assay (promega). Luminoscence was measured by reacting the enzyme activity reaction solution, ADP-Glo reaction solution, and enzyme activity detection solution at the ratio of 2:2:1. The degree of enzyme activity inhibition according to the treatment concentration of each compound was calculated based on the fluorescence of the enzyme activity of the solvent control not treated with the compound. At this time, the concentration of each compound inhibiting 50% of the enzyme activity was determined as IC50 (nM). IC50 of each compound was determined with three data sets and calculated using Prism (version 7.01, GraphPad) software.

[2] = tested on: human Jurkat T cells deficient in FADD; test: Cell protection effect under apoptosis-inducing condition (TNF-α); type: cell-based; details: 40 ng of TNF-α, 50 hours, CellTiter-Glo, read-out: I2.I Cell EC50
Description: The cell protection effect of the compounds according to the present invention under the condition of inducing apoptosis by TNF-α was confirmed by […]. An apoptosis inducing factor such as TNF-α was treated to induce apoptosis of human Jurkat T cells deficient in FADD, to which the example compound was treated, and the cell protection effect was confirmed through the following analysis. Jurkat T cells deficient in FADD were cultured using RPMI medium (Hyclone) containing 10% FBS. When performing the test, the cells were seeded in a 96-well plate containing a medium suitable for the cell line at the density of 10,000 cells/well, and cultured in a 37° C. 5% CO2 incubator for 24 hours. Then, each well was treated with 40 ng of TNF-α, and the compounds prepared in the above examples were each treated with a 3-fold concentration gradient with 1 μM as the highest concentration. As the solvent control, dimethyl sulfoxide (DMSO) was treated at the concentration of 0.05% (v/v), which was the same concentration as that used for the compound treatment. Then, the cells were cultured for 50 hours. To confirm the degree of viability of the cells, a mixture provided in CellTiter-Gloe Luminescent Cell Viability Assay Kit (Promega) was added to the culture medium of the cells, followed by further culture at 37° C. for 30 minutes. Then, luminescence fluorescence was measured. The degree of inhibition of apoptosis induction according to the treatment concentration of each compound was calculated based on the fluorescence of the solvent control cells not treated with the compound. At this time, the concentration of each compound inhibiting 50% was determined as EC50 (μM). EC50 of each compound was calculated using Prism (version 7.01, GraphPad) software.

Compound | IC50 [1] | EC50 [2]
CNC(=O)Nc1cccn2c(C#Cc3cccc(NC(=O)N4N=CCC4c4ccccc4)c3)cnc12 (stereo not drawn) [Example 61, N-(3-((8-(3-methylureido)imidazo[1,2-a]pyridin-3-yl)ethynyl)phenyl)-5-phenyl-4,5-dihydro-1H-pyrazole-1-carboxamide 2,2,2-trifluoroacetate] | 96.7 nM | 0.4 nM
O=C(Nc1cccc(C#Cc2cnc3cccnn23)c1)N1N=CCC1c1ccc(Cl)cc1 (stereo not drawn) [Example 35, 5-(4-chlorophenyl)-N-(3-(imidazo[1,2-b]pyridazin-3-ylethynyl)phenyl)-4,5-dihydro-1H-pyrazole-1-carboxamide 2,2,2-trifluoroacetate] | 61.6 nM | 3.87 nM
Cc1ccc(NC(=O)N2N=CC[C@@H]2c2cc(F)cc(F)c2)cc1C#Cc1cnc2cccnn12 [Example 6, (R)-5-(3,5-difluorophenyl)-N-(3-(imidazo[1,2-b]pyridazin-3-ylethynyl)-4-methylphenyl)-4,5-dihydro-1H-pyrazole-1-carboxamide 2,2,2-trifluoroacetate] | > 1000 nM | 249 nM
O=C(Nc1cncc(C#Cc2cnc3cccnn23)c1)N1N=CCC1c1ccccc1 (stereo not drawn) [Example 51, N-(5-(imidazo[1,2-b]pyridazin-3-ylethynyl)pyridin-3-yl)-5-phenyl-4,5-dihydro-1H-pyrazole-1-carboxamide 2,2,2--trifluoroacetate] | 1.22 nM | 1.84 nM
O=C(Nc1cccc(C#Cc2cnc3cccnn23)c1)N1N=CCC1c1ccc(F)cc1 (stereo not drawn) [Example 31, 5-(4-fluorophenyl)-N-(3-(imidazo[1,2-b]pyridazin-3-ylethynyl)phenyl)-4,5-dihydro-1H-pyrazole-1-carboxamide 2,2,2-trifluoroacetate] | 10.2 nM | 1.43 nM
O=C(Nc1cccc(C#Cc2cnc3cccnn23)c1)N1N=CCC1c1ccc2ccccc2c1 (stereo not drawn) [Example 40, N-(3-(imidazo[1,2-b]pyridazin-3-ylethynyl)phenyl)-5-(naphthalen-2-yl)-4,5-dihydro-1H-pyrazole-1-carboxamide] | 19 nM | 12.4 nM
Cc1ccc(NC(=O)N2N=CCC2c2cccnc2)cc1C#Cc1cnc2cccnn12 (stereo not drawn) [Example 16, N-(3-(imidazo[1,2-b]pyridazin-3-ylethynyl)-4-methylphenyl)-5-(pyridin-3-yl)-4,5-dihydro-1H-pyrazole-1-carboxamide 2,2,2-trifluoroacetate] | 1.8 nM | 0.05 nM
O=C(Nc1cccc(C#Cc2cnc3cccnn23)c1)N1N=CC[C@H]1c1ccccc1 [Example 20, (S)—N-(3-(imidazo[1,2-b]pyridazin-3-ylethynyl)phenyl)-5-phenyl-4,5-dihydro-1H-pyrazole-1-carboxamide hydrochloride] | 0.52 nM | 0.021 nM
Cc1ccc(NC(=O)N2N=CCC2c2cccc(Cl)c2)cc1C#Cc1cnc2cccnn12 (stereo not drawn) [Example 14, 5-(3-chlorophenyl)-N-(3-(imidazo[1,2-b]pyridazin-3-ylethynyl)-4-methylphenyl)-4,5-dihydro-1H-pyrazole-1-carboxamide 2,2,2-trifluoroacetate] | 5.3 nM | 0.2 nM

Second part, the compound after the results:

IC50 [1] | EC50 [2] | Compound
2.35 nM | 55.4 nM | COc1ccc(C2CC=NN2C(=O)Nc2cccc(C#Cc3cnc4cccnn34)c2)cc1 (stereo not drawn) [Example 27, N-(3-(imidazo[1,2-b]pyridazin-3-ylethynyl)phenyl)-5-(4-methoxyphenyl)-4,5-dihydro-1H-pyrazole-1-carboxamide 2,2,2-trifluoroacetate]
503 nM | 321 nM | Cc1ccc(NC(=O)N2N=CC[C@@H]2c2ccc(F)cc2)cc1C#Cc1cnc2cccnn12 [Example 13, (R)-5-(4-fluorophenyl)-N-(3-(imidazo[1,2-b]pyridazin-3-ylethynyl)-4-methylphenyl)-4,5-dihydro-1H-pyrazole-1-carboxamide 2,2,2-trifluoroacetate]
775 nM | > 1000 nM | O=C(Nc1cc(C#Cc2cnc3cccnn23)ccn1)N1N=CCC1c1ccccc1 (stereo not drawn) [Example 52, N-(4-(imidazo[1,2-b]pyridazin-3-ylethynyl)pyridin-2-yl)-5-phenyl-4,5-dihydro-1H-pyrazole-1-carboxamide 2,2,2-trifluoroacetate]
> 1000 nM | 32 nM | O=C(Nc1cccc(C#Cc2cnc3cccnn23)c1)N1N=CC[C@@H]1c1ccc(F)cc1 [Example 33, (R)-5-(4-fluorophenyl)-N-(3-(imidazo[1,2-b]pyridazin-3-ylethynyl)phenyl)-4,5-dihydro-1H-pyrazole-1-carboxamide 2,2,2-trifluoroacetate]
33 nM | 64.6 nM | O=C(Nc1cccc(C#Cc2cnc3cccnn23)c1)N1N=CCC1c1cc2ccccc2cn1 (stereo not drawn) [Example 41, N-(3-(imidazo[1,2-b]pyridazin-3-ylethynyl)phenyl)-5-(isoquinolin-3-yl)-4,5-dihydro-1H-pyrazole-1-carboxamide]
51.4 nM | 0.2 nM | CS(=O)(=O)c1ccc(Nc2cccn3c(C#Cc4cccc(NC(=O)N5N=CCC5c5ccccc5)c4)cnc23)cc1 (stereo not drawn) [Example 65, N-(3-((8-((4-(methylsulfonyl)phenyl)amino)imidazo[1,2-a]pyridin-3-yl)ethynyl)phenyl)-5-phenyl-4,5-dihydro-1H-pyrazole-1-carboxamide 2,2,2-trifluoroacetate]
179 nM | 1.7 nM | O=C(Nc1cccn2c(C#Cc3cccc(NC(=O)N4N=CCC4c4ccccc4)c3)cnc12)C1CC1 (stereo not drawn) [Example 62, N-(3-((8-(cyclopropanecarboxamido)imidazo[1,2-a]pyridin-3-yl)ethynyl)phenyl)-5-phenyl-4,5-dihydro-1H-pyrazole-1-carboxamide 2,2,2-trifluoroacetate]
399 nM | 321 nM | O=C(Nc1cccc(C#Cc2cnc3cccnn23)c1)N1N=CC[C@@H]1c1cccc(F)c1 [Example 30, (R)-5-(3-fluorophenyl)-N-(3-(imidazo[1,2-b]pyridazin-3-ylethynyl)phenyl)-4,5-dihydro-1H-pyrazole-1-carboxamide 2,2,2-trifluoroacetate]
30.6 nM | 0.22 nM | Cc1cc(Nc2cccn3c(C#Cc4cccc(NC(=O)N5N=CCC5c5ccccc5)c4)cnc23)n[nH]1 (stereo not drawn) [Example 66, N-(3-((8-((5-methyl-1H-pyrazol-3-yl)amino)imidazo[1,2-a]pyridin-3-yl)ethynyl)phenyl)-5-phenyl-4,5-dihydro-1H-pyrazole-1-carboxamide 2,2,2-trifluoroacetate]
801 nM | 326 nM | Cc1ccc(NC(=O)N2N=CC[C@@H]2c2cccc(F)c2)cc1C#Cc1cnc2cccnn12 [Example 10, (R)-5-(3-fluorophenyl)-N-(3-(imidazo[1,2-b]pyridazin-3-ylethynyl)-4-methylphenyl)-4,5-dihydro-1H-pyrazole-1-carboxamide 2,2,2-trifluoroacetate]
39.6 nM | 0.9 nM | O=C(Nc1cccn2c(C#Cc3cccc(NC(=O)N4N=CCC4c4ccccc4)c3)cnc12)C1CCC1 (stereo not drawn) [Example 63, N-(3-((8-(cyclobutanecarboxamido)imidazo[1,2-a]pyridin-3-yl)ethynyl)phenyl)-5-phenyl-4,5-dihydro-1H-pyrazole-1-carboxamide 2,2,2-trifluoroacetate]
4.9 nM | 2.8 nM | O=C(Nc1cccc(C#Cc2cnc3cccnn23)c1)N1N=CCC1c1ccc2c(c1)OCO2 (stereo not drawn) [Example 39, 5-(benzo[d][1,3]dioxol-5-yl)-N-(3-(imidazo[1,2-b]pyridazin-3-ylethynyl)phenyl)-4,5-dihydro-1H-pyrazole-1-carboxamide 2,2,2-trifluoroacetate]
